Results as given in PubChem BioAssay (NCI).
Where “and” joins values, the source holds several entries; their conditions need not be identical. Identical values can stand only once.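 In this assay, cells in 96-well plates receive the compound at five concentrations for 48 hours. Endpoints are linearly interpolated between the surrounding concentrations. GI50 = concentration required for 50% inhibition of growth. TGI marks complete inhibition of growth.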

Columns and labels:
Test in all cases: NCI tumour cell line growth inhibition, 48 h
CAKI-1 renal = tested on: CAKI-1 renal
HOP-92 NSCLC = tested on: HOP-92 NSCLC
HT29 colon = tested on: HT29 colon
OVCAR-4 ovarian = tested on: OVCAR-4 ovarian
RPMI-8226 leukemia = tested on: RPMI-8226 leukemia
RXF 393 renal = tested on: RXF 393 renal
SK-OV-3 ovarian = tested on: SK-OV-3 ovarian
SN12C renal = tested on: SN12C renal
SNB-75 CNS = tested on: SNB-75 CNS
SW-620 colon = tested on: SW-620 colon

| SMILES | GI50 (CAKI-1 renal) [µM] | TGI (CAKI-1 renal) [µM] | GI50 (HOP-92 NSCLC) [µM] | TGI (HOP-92 NSCLC) [µM] | GI50 (HT29 colon) [µM] | TGI (HT29 colon) [µM] | GI50 (OVCAR-4 ovarian) [µM] | TGI (OVCAR-4 ovarian) [µM] | GI50 (RPMI-8226 leukemia) [µM] | TGI (RPMI-8226 leukemia) | GI50 (RXF 393 renal) [µM] | TGI (RXF 393 renal) [µM] | GI50 (SK-OV-3 ovarian) [µM] | TGI (SK-OV-3 ovarian) [µM] | GI50 (SN12C renal) [µM] | TGI (SN12C renal) [µM] | GI50 (SNB-75 CNS) [µM] | TGI (SNB-75 CNS) [µM] | GI50 (SW-620 colon) [µM] | TGI (SW-620 colon) [µM] |
| --- | --- | --- | --- | --- | --- | --- | --- | --- | --- | --- | --- | --- | --- | --- | --- | --- | --- | --- | --- | --- |
| O=C([CH-]C(=O)c1ccccc1)c1ccccc1.O=C([CH-]C(=O)c1ccccc1)c1ccccc1.O=C([CH-]C(=O)c1ccccc1)c1ccccc1.[Cl-].[Zr+4] | 12.4 | 63.8 | 8.09 | 36 | 29 | > 100 | 15.9 | 88.4 | 16.6 | > 100 µM | 15 | 71.9 | 37.8 | 74.5 | 35.9 | > 100 | 3.34 | 30.1 | 33.8 | > 100 |
| COc1ccc2c(c1)[n+](=O)c(C(=O)CC(=O)C(=O)Nc1cccc(C)c1C)c(C)n2[O-] | – | > 100 | – | > 100 | – | > 100 | – | > 100 | – | > 100 µM | – | > 100 | – | > 100 | – | > 100 | – | – | – | > 100 |
| Cc1noc(C)c1-c1cnc2c(-c3ccc(C(=O)O)cc3)cn([C@@H](C)c3ccccn3)c2c1 | 0.0745 | > 83.6 | 0.212 | > 100 | 0.386 | > 100 | 0.772 | > 100 | 0.155 | > 100 µM | 2.4 | 34.6 | 0.635 | 32.5 | 2.99 | > 100 | 0.0376 | 2.47 | 15.6 | > 100 |
| Oc1c(O)c(Cl)c(Cl)c(Cl)c1Cl | 6.33 | 23 | 2.11 | 7.37 | 4.89 | 22.4 | 2.44 | 8.86 | 2.23 | 7.38 µM | 1.61 | 13.9 | 16 | 44.5 | 3.79 | 50 | 2.52 | 21 | 3.17 | 30.3 |
| O=C(O)Cn1ccc2ccccc21 | > 100 | > 100 | – | > 100 | > 100 | > 100 | > 100 | > 100 | > 100 | > 100 µM | > 100 | > 100 | > 100 | > 100 | > 100 | > 100 | > 100 | > 100 | > 100 | > 100 |
| Nc1ccccc1C(=O)NC(=O)Nc1ccc(Oc2ncc(Br)cn2)c(Cl)c1 | – | 1.72 | 0.303 | 6.66 | – | 0.448 | – | 10.2 | – | 29.6 µM | – | 0.458 | – | 3.2 | – | 17.4 | 0.0035 | – | 0.0181 | 26.3 |
| O=C(Oc1ccccc1)C(Br)C(Br)c1ccccc1 (stereo not given) | 1.65 | 3.06 | 2.73 | 7.52 | – | – | 2.25 | 5.04 | 2.75 | 7.9 µM | 1.74 | 3.23 | 15.9 | 29.3 | 1.88 | 4.5 | 15.7 | 30.1 | 1.74 | 3.29 |
| COc1cc(Nc2ncnc(Nc3ccc4c(n3)NC(=O)C(C)(C)O4)n2)cc(OC)c1OC | 0.319 | > 100 | 0.243 | 1.71 | 0.803 | > 100 | – | > 100 | – | – | 0.148 | 0.622 | 0.929 | – | 0.411 | > 100 | 0.169 | 0.724 | 2.73 | > 100 |
| CC1(C)C(=O)C(=Cc2ccco2)C1=O | – | > 100 | – | > 100 | – | > 100 | – | > 100 | – | > 100 µM | – | – | – | > 100 | – | > 100 | – | > 100 | – | > 100 |
| O=c1c2cccnc2ncn1CCCN1CCCC1 | – | > 100 | – | > 100 | – | > 100 | – | > 100 | – | – | – | > 100 | – | > 100 | – | > 100 | – | > 100 | – | > 100 |
| CN(C)CCCCCNc1c2ccccc2nc2cccc([N+](=O)[O-])c12 | – | 0.0158 | – | 0.00895 | 0.00502 | 0.00839 | 0.00339 | 0.00236 | – | > 0.1 µM and 0.0188 µM | 0.00139 | 0.0032 | – | > 0.0245 | – | – | – | 0.00534 | 0.00632 | 0.0126 |
| COc1cc2c3c(c1OC)C(=O)C=C3N(S(=O)(=O)c1ccc(C)cc1)CC2 | – | > 100 | – | > 100 | – | > 100 | – | > 100 | – | > 100 µM | – | – | – | > 100 | – | > 100 | – | > 100 | – | > 100 |
| C=C(CO)CC(/C=C(\C)CC/C=C(\C)CCl)OC(C)=O (stereo not given) | – | – | – | > 100 | – | > 100 | – | > 100 | – | > 100 µM | – | > 100 | – | > 100 | – | > 100 | – | > 100 | – | > 100 |
| CC12OC(C(=O)C13CCC3)C1C(=O)c3ccc4c(ccc5ccccc54)c3C(=O)C12 (stereo not given) | 1.42 | 12.7 | 5.02 | 21.2 | 3.85 | 19.2 | – | – | – | – | 13.3 | 30.3 | 26.5 | 80.5 | 2.72 | 19.6 | 18.1 | 37.7 | – | – |
| O=C(CN(/C=C/C(=O)C(F)(F)F)c1ccccc1)c1ccc(Cl)cc1 | 17.8 | 42.5 | 19.1 | 42.1 | 34.5 | > 100 | 26.6 | 70.1 | 9.66 | 43.1 µM | 17.1 | 42.6 | 36.4 | > 100 | 16 | 29.9 | – | – | 22.1 | 45.8 |
| COc1cc(CN(c2ccc(C)cc2)C2OC(=O)c3ccccc32)cc(OC)c1OC (stereo not given) | 0.472 | > 100 | 0.449 | > 100 | 0.355 | > 100 | 2.93 | > 100 | 0.455 | > 100 µM | 0.141 | 0.52 | 0.472 | > 57.9 | 0.854 | > 100 | 0.285 | > 100 | – | – |
| Nc1nc2c(ccc3ccccc32)s1 | 26.7 | 67.5 | 19.3 | 85.2 | > 100 | > 100 | > 100 | > 100 | 43.8 | > 100 µM | 37.2 | > 100 | – | – | > 100 | > 100 | 36.8 | > 100 | > 100 | > 100 |
| C/C(O)=C(\N=O)C(=O)NCc1ccccc1 | – | > 100 | – | > 100 | – | > 100 | – | – | – | > 100 µM | – | > 100 | – | > 100 | – | > 100 | – | > 100 | – | 31.4 |
| C[C@H](NC(=O)c1c(C(F)F)nn(C)c1Oc1cccc(C(F)(F)F)c1)c1ccc(C(=O)O)cc1 | > 100 | > 100 | 6.94 | > 100 | > 100 | > 100 | > 100 | > 100 | > 100 | > 100 µM | – | – | > 100 | > 100 | > 100 | > 100 | > 100 | > 100 | > 100 | > 100 |
| COc1ccc(-c2n[nH]nc2-c2cc(OC)c3c(c2)OCO3)cc1 | 0.0237 | 58.5 | 0.16 | 22.2 | 0.0365 | 4.29 | 1.25 | > 100 | 0.0319 | 32.5 µM | – | – | 0.0294 | 2.08 | 0.071 | 55.6 | 0.0128 | 1.72 | < 0.0117 | > 100 |
| C=C1C(=O)O[C@H]2[C@H]1CC/C(COC(=O)NCCc1cccc(OC)c1)=C\CC[C@@]1(C)O[C@@H]21 | 1.19 | 2.52 | 1.84 | 3.96 | 1.14 | 2.88 | 1.78 | 4.37 | 0.917 | 4.34 µM | 0.673 | 2.38 | 13.6 | 27.7 | – | – | 1.47 | 4.71 | 0.502 | 2.01 |
| COc1cc2nc(-c3cccc4cccnc34)nc(NC3CCN(Cc4ccccc4)CC3)c2cc1OC | 1.37 | 2.98 | 1.59 | 3.36 | 0.419 | 1.85 | 1.11 | 2.71 | 1.6 | 4.54 µM | – | – | 1.56 | 3.22 | 1.11 | 2.58 | 1.84 | 3.56 | 0.509 | 2.01 |
| O=C1Nc2ccccc2/C1=C/c1cn(CC(O)Cn2cc(/C=C3\C(=O)Nc4ccccc43)c3ccccc32)c2ccccc12 (stereo not given) | 1.62 | 3.39 | 1.8 | 4.15 | 1.42 | 3.52 | – | – | 2.1 | 5.41 µM | 2.04 | 3.75 | 1.65 | 3.68 | 1.52 | 3.16 | 1.33 | 2.92 | 1.34 | 3.48 |
